Laboratory results reported in US20230381157A1, “RIFABUTIN FOR THE TREATMENT OF ACINETOBACTER BAUMANNII” (University of Southern California, priority 2018, published 2023).
Values after ≈ are worked out from the molar mass of the structure shown. Values joined by “and” are separate entries in the source; they are usually repeats but may differ in a detail not shown here. Equal entries are not always repeated. Where two headings read alike, the source gives them in different places.

Legend:
A. baumannii HUMC1 [1] = test: MIC, broth microdilution in MHII, RPMI or modified media; assay type: cell-based, Acinetobacter baumannii; settings: for Rifabutin MIC: clinical isolate HUMC1
A. baumannii HUMC1 [2] = test: IC50 dose response, inhibition of bacterial growth (BacTiter-Glo viability); assay type: cell-based, Acinetobacter baumannii; settings: Acinetobacter baumannii, 11-point dose response
HEK293T = test: Specificity: mammalian cell cytotoxicity / inhibition of bacteria growth (CC50/IC50)
A. baumannii LAC-4 = assay type: in vivo, mouse; settings: C3H mice, 10 mg/kg/daily or 1 mg/kg for 3 days, listed as RBT
HepG2 = settings: top screen hits; IC50 against A. baumannii HUMC1 in 50% serum
[3] = Murine neuropenic lung infection model; assay type: in vivo, mouse
Acinetobacter baumannii = test: Galleria mellonella infection model; assay type: in vivo
A. baumannii ATCC 17978 = test: IC50 dose response, inhibition of bacterial growth (BacTiter-Glo viability); assay type: cell-based, Acinetobacter baumannii; settings: Acinetobacter baumannii, 11-point dose response
A. baumannii = assay type: cell-based, Acinetobacter baumannii

In the case of `CO[C@H]1/C=C/O[C@@]2(C)Oc3c(C)c(O)c4c(c3C2=O)C2=NC3(CCN(CC(C)C)CC3)NC2=C(NC(=O)/C(C)=C\C=C\[C@H](C)[C@H](O)[C@@H](C)[C@@H](O)[C@@H](C)[C@H](OC(C)=O)[C@@H]1C)C4=O` [rifabutin], the MIC (A. baumannii HUMC1 [1]; Acinetobacter baumannii, HUMC1, HUMC1, RPMI + Essential Amino Acid Solution (50×)) is reported as 1.56 µg/mL, the MIC (A. baumannii HUMC1 [1]; Acinetobacter baumannii, HUMC1, HUMC1, RPMI + Glutamic Acid 0.5 mM) is reported as under 0.048 µg/mL and the MIC (A. baumannii HUMC1 [1]; Acinetobacter baumannii, HUMC1, HUMC1, RPMI + Glycine 0.5 mM) is reported as under 0.048 µg/mL. It also gave an MIC (A. baumannii HUMC1 [1]; Acinetobacter baumannii, HUMC1, HUMC1, RPMI + L-Arginine 0.5 mM) of under 0.048 µg/mL, an MIC (A. baumannii HUMC1 [1]; Acinetobacter baumannii, HUMC1, HUMC1, RPMI + L-Histidine 0.5 mM) of 1.56 µg/mL and an MIC (A. baumannii HUMC1 [1]; Acinetobacter baumannii, HUMC1, HUMC1, RPMI + L-Tryptophan 0.125 mM) of 1.56 µg/mL. The MIC (A. baumannii HUMC1 [1]; Acinetobacter baumannii, HUMC1, HUMC1, RPMI + Leucine 1 mM) was under 0.048 µg/mL, the MIC (A. baumannii HUMC1 [1]; Acinetobacter baumannii, HUMC1, HUMC1, RPMI + Non-Essential Amino Acid Solution (100×)) was 0.781 µg/mL and the MIC (A. baumannii HUMC1 [1]; Acinetobacter baumannii, HUMC1, HUMC1, RPMI + Organic Layer, Proteinase K Digested) was 4 µg/mL. It also gave an MIC (A. baumannii HUMC1 [1]; Acinetobacter baumannii, HUMC1, HUMC1, RPMI + Organic layer, Sodium Periodate Treated) of 4 µg/mL, an MIC (A. baumannii HUMC1 [1]; Acinetobacter baumannii, HUMC1, HUMC1, RPMI + acetonitrile treated <10 kDa MHII fraction, Aqueous Layer) of under 0.0312 µg/mL and an MIC (A. baumannii HUMC1 [1]; Acinetobacter baumannii, HUMC1, HUMC1, RPMI + acetonitrile treated <10 kDa MHII fraction, Organic Layer) of 4 µg/mL. For the same molecule, the MIC (A. baumannii HUMC1 [1]; Acinetobacter baumannii, HUMC1, HUMC1, RPMI + efflux pump inhibitor CCCP (2 μg/mL)) was under 0.05 µg/mL, the MIC (A. baumannii HUMC1 [1]; Acinetobacter baumannii, HUMC1, HUMC1, RPMI + efflux pump inhibitor thioridazine (16 μg/mL)) was 12.5 µg/mL and the MIC (A. baumannii HUMC1 [1]; Acinetobacter baumannii, HUMC1, HUMC1, RPMI Supplemented with MHII (hybrid media, equal parts)) was 8 µg/mL (≈ 9.44 µM). It also gave an MIC (A. baumannii HUMC1 [1]; Acinetobacter baumannii, HUMC1, HUMC1, Tissue culture treated 96-well plates) of 1.56 µg/mL (≈ 1.84 µM), an MIC (A. baumannii HUMC1 [1]; HUMC1, 5 × RPMI, listed as RBT) of 0.06 µg/mL (≈ 0.0708 µM) and an MIC (A. baumannii HUMC1 [1]; HUMC1, 10-30 kDa MHII Fraction spiked into RPMI, listed as RBT) of 8.00 µg/mL (≈ 9.44 µM). The “difference in MICs at lower temperature” value (A. baumannii HUMC1 [1]; HUMC1, 25° C. or 30° C. compared to 37° C., MHII or RPMI) was “did not observe any difference”, the MIC (A. baumannii HUMC1 [1]; HUMC1, 25° C., MHII, listed as RBT) was 4.00 µg/mL (≈ 4.72 µM) and the MIC (A. baumannii HUMC1 [1]; HUMC1, 25° C., RPMI, listed as RBT) was 0.05 µg/mL (≈ 0.059 µM). The MIC (A. baumannii HUMC1 [1]; HUMC1, <10 kDa MHII Fraction spiked into RPMI, listed as RBT) was 8 µg/mL and 8.00 µg/mL, the “effect of added iron on MIC” value (A. baumannii HUMC1 [1]; HUMC1, FeCl3 spiked into RPMI at 0.01, 0.10, and 0.30 μg/mL) was “did not have any effect” and the MIC (A. baumannii HUMC1 [1]; HUMC1, MHII (CAMHB in b45)) was 3.125 µg/mL (≈ 3.69 µM). For the same molecule, the MIC (A. baumannii HUMC1 [1]; HUMC1, MHII (CAMHB in b45), listed as Rifabutin) was 3.125 µg/mL and 6.25 µg/mL, the MIC (A. baumannii HUMC1 [1]; HUMC1, MHII (CAMHB), listed as RBT) was 4.00 µg/mL and 6.25 µg/mL and the MIC (A. baumannii HUMC1 [1]; HUMC1, RPMI) was 0.0156 µg/mL (≈ 0.0184 µM). For the same molecule, the MIC (A. baumannii HUMC1 [1]; HUMC1, RPMI + Glutamic Acid 0.5 mM, listed as RBT) was 0.05 µg/mL, the MIC (A. baumannii HUMC1 [1]; HUMC1, RPMI + Glycine 0.5 mM, listed as RBT) was 0.05 µg/mL and the MIC (A. baumannii HUMC1 [1]; HUMC1, RPMI + L-Arginine 0.5 mM, listed as RBT) was 0.05 µg/mL. For the same molecule, the MIC (A. baumannii HUMC1 [1]; HUMC1, RPMI + Leucine 1 mM, listed as RBT) was 0.05 µg/mL, the MIC (A. baumannii HUMC1 [1]; HUMC1, RPMI + Non-Essential Amino Acid Solution (100×), listed as RBT) was 0.78 µg/mL and the MIC (A. baumannii HUMC1 [1]; HUMC1, RPMI + Organic Layer, Proteinase K Digested, listed as RBT) was 4.00 µg/mL. The MIC (A. baumannii HUMC1 [1]; HUMC1, RPMI + Organic layer, Sodium Periodate Treated, listed as RBT) was 4.00 µg/mL, the MIC (A. baumannii HUMC1 [1]; HUMC1, RPMI + acetonitrile treated <10 kDa MHII fraction, Aqueous Layer, listed as RBT) was 0.03 µg/mL and the MIC (A. baumannii HUMC1 [1]; HUMC1, RPMI + acetonitrile treated <10 kDa MHII fraction, Organic Layer, listed as RBT) was 4.00 µg/mL. The MIC (A. baumannii HUMC1 [1]; HUMC1, RPMI + efflux pump inhibitor CCCP (2 μg/mL), listed as RBT) was 0.05 µg/mL, the MIC (A. baumannii HUMC1 [1]; HUMC1, RPMI Supplemented with MHII (hybrid media, equal parts)) was 8 µg/mL (≈ 9.44 µM) and the MIC (A. baumannii HUMC1 [1]; HUMC1, RPMI Supplemented with MHII (hybrid media, equal parts), listed as RBT) was 8.00 µg/mL (≈ 9.44 µM). For the same molecule, the “fold lower MIC of RBT as compared to RIF” value (A. baumannii HUMC1 [1]; HUMC1, RPMI, listed as RBT) was 133 fold and 200 fold, the Rifabutin MIC (A. baumannii HUMC1 [1]; MHII) was 3.12 µg/mL and the Rifabutin MIC (A. baumannii HUMC1 [1]; RPMI) was 0.0156 µg/mL. For the same molecule, the IC50 (A. baumannii HUMC1 [2]; HUMC1, 24 h, HUMC1, RPMI + 50% Serum) was under 0.847 nM, the IC50 (A. baumannii HUMC1 [2]; HUMC1, HUMC1, RPMI + 50% Serum) was under 0.847 nM and the IC50 (A. baumannii HUMC1 [2]; HUMC1, HUMC1, RPMI) was 1 nM. For the same molecule, the “Specificity HEK293T (CC50/IC50)” value (HEK293T; IC50 vs A. baumannii ATCC 17978, RPMI + 50% serum) was 506006.298, the “Specificity HEK293T (CC50/IC50)” value (HEK293T; IC50 vs A. baumannii ATCC 17978, RPMI alone) was 1961.478 and the “Specificity HEK293T (CC50/IC50)” value (HEK293T; IC50 vs A. baumannii HUMC1, RPMI + 50% serum) was 97331.320. For the same molecule, the “Specificity HEK293T (CC50/IC50)” value (HEK293T; IC50 vs A. baumannii HUMC1, RPMI alone) was 33559.242, the “Specificity HEK293T (CC50/IC50)” value (HEK293T; top screen hits, IC50 against A. baumannii HUMC1 in 50% serum) was 148.31 and the “efficacy RBT vs RIF” value (A. baumannii LAC-4) was “no difference in efficacy”. For the same molecule, the “Specificity HepG2 (CC50/IC50)” value (HepG2) was 148.31, the “efficacy vs RIF” value [3] was “more effective as compared to RIF” and the “protection, multiple doses” value (Acinetobacter baumannii; G. mellonella infection model) was “protective at significantly lower doses as compared to RIF”. The “lowest efficacious dose (efficacious at doses as low as)” value (Acinetobacter baumannii; Galleria mellonella, dose-response) was 0.1 mg/kg, the IC50 (A. baumannii ATCC 17978; ATCC17978, 24 h, ATCC 17978, RPMI + 50% Serum) was under 0.847 nM and the IC50 (A. baumannii ATCC 17978; ATCC17978, ATCC 17978, RPMI + 50% Serum) was under 0.847 nM. The IC50 (A. baumannii ATCC 17978; ATCC17978, ATCC 17978, RPMI) was 24 nM, the “Mutation Frequency” value (A. baumannii; A. baumannii ABNIH1, MHII) was 8.85E−09 and the “Mutation Frequency” value (A. baumannii; A. baumannii ABNIH1, TSA) was 5.95E−09. The “Mutation Frequency” value (A. baumannii; A. baumannii ATCC17978, MHII) was 5.72E−09, the “Mutation Frequency” value (A. baumannii; A. baumannii ATCC17978, TSA) was 8.49E−10 and the “Mutation Frequency” value (A. baumannii; A. baumannii HUMC1, MHII) was 2.20E−09. The “Mutation Frequency” value (A. baumannii; A. baumannii HUMC1, TSA) was 1.28E−08, the “Mutation Frequency” value (A. baumannii; A. baumannii LAC-4, MHII) was 1.29E−08 and the “Mutation Frequency” value (A. baumannii; A. baumannii LAC-4, TSA) was 7.41E−09.
